This note sets out measurements from PubChem BioAssay (NCI).

Some test systems named below: SK-MEL-28 melanoma; IGROV1 ovarian; RPMI-8226 leukemia; A498 renal; HCT-116 colon; NCI-H522 lung; 786-0 renal; SNB-19 CNS.
Common to all, as to test: NCI anticancer screen, dose series, 48 h

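Dose response: 5 concentrations. Exposure: 48 h. Format: 96-well plates. Endpoint: linear interpolation; highest concentration if not reached. The concentration for 50% growth inhibition is given as GI50. TGI marks complete inhibition of growth.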

`O=c1c2cc(Br)ccc2n(C2OC(CO)C(O)C(O)C2O)c(=S)n1-c1ccccc1` (stereo not given): the TGI with SK-MEL-28 melanoma, with IGROV1 ovarian, in the experiment with RPMI-8226 leukemia, in the experiment with A498 renal, in the experiment on HCT-116 colon and in the experiment on NCI-H522 lung was above 100 µM throughout. The TGI with 786-0 renal and in the experiment on SNB-19 CNS was above 100 µM throughout.
For the molecule `Nc1ncnc2c1N=CN(Oc1ccccc1)N2`, the TGI with SK-MEL-28 melanoma, in the experiment with IGROV1 ovarian, with RPMI-8226 leukemia, with HCT-116 colon and with 786-0 renal was above 100 µM throughout.
Turning to `O=C(Cc1ccccc1)N/N=C(/c1nc2ccc([N+](=O)[O-])cc2[nH]c1=O)C(O)c1ccco1` (stereo not given), the TGI in the experiment on SK-MEL-28 melanoma, with IGROV1 ovarian, with RPMI-8226 leukemia, with A498 renal, in the experiment on HCT-116 colon and with NCI-H522 lung was above 100 µM throughout. Also, in the experiment on 786-0 renal, the TGI was above 100 µM.
Take `C=CCC(O)c1cc(OC)ccc1OC` (stereo not given): the TGI with SK-MEL-28 melanoma, with IGROV1 ovarian, in the experiment on RPMI-8226 leukemia, in the experiment on NCI-H522 lung, with 786-0 renal and with SNB-19 CNS was above 100 µM each time.
As to `CCOC(=O)C1=C(Nc2cccc3ccccc23)OCC1=O`, the TGI in the experiment on SK-MEL-28 melanoma, with IGROV1 ovarian, in the experiment with RPMI-8226 leukemia, in the experiment with A498 renal, with HCT-116 colon and with NCI-H522 lung was above 100 µM in each case. Also, the TGI with 786-0 renal and in the experiment on SNB-19 CNS was above 100 µM in each case.
On to `CC(C)=CC1(C)/C(=N\O)C(C)(CC(C)C)C(=O)N1O` (stereo not given), for which the TGI with SK-MEL-28 melanoma, with IGROV1 ovarian, with RPMI-8226 leukemia, in the experiment on A498 renal, in the experiment on HCT-116 colon and in the experiment on NCI-H522 lung was above 100 µM in each case. Also, the TGI in the experiment on 786-0 renal and with SNB-19 CNS was above 100 µM in each case.
In the case of `CC1=C(C(=O)NCc2ccccc2)C(c2ccc(N(C)C)cc2)C(C(=O)NCc2ccccc2)=C(C)N1`, the TGI in the experiment on SK-MEL-28 melanoma, with IGROV1 ovarian, in the experiment with RPMI-8226 leukemia, with A498 renal, with HCT-116 colon and in the experiment with NCI-H522 lung was above 100 µM in each case. The TGI in the experiment with 786-0 renal and in the experiment with SNB-19 CNS was above 100 µM throughout.
Take `CN(C)C(=S)/N=C(\N)N(C)C`: the TGI in the experiment on SK-MEL-28 melanoma, in the experiment with IGROV1 ovarian, with RPMI-8226 leukemia, in the experiment with A498 renal, in the experiment on HCT-116 colon and with NCI-H522 lung was above 100 µM in each case. Besides, the TGI in the experiment with 786-0 renal and in the experiment on SNB-19 CNS was above 100 µM throughout.
Regarding `CC1=CC[C@@H]2C(=O)C=CC=C[C@H]12.[C-]#[O+].[C-]#[O+].[C-]#[O+].[Fe]`, the GI50 in the experiment with SK-MEL-28 melanoma was above 100 µM; with RPMI-8226 leukemia, above 100 µM; in the experiment with A498 renal it was above 100 µM; in the experiment with HCT-116 colon, above 100 µM; in the experiment on NCI-H522 lung it was 9.81 µM; in the experiment with 786-0 renal, above 100 µM. In the experiment on SNB-19 CNS, the GI50 was above 100 µM. Also, the TGI in the experiment with SK-MEL-28 melanoma, in the experiment on RPMI-8226 leukemia, in the experiment with A498 renal, in the experiment on HCT-116 colon, in the experiment on NCI-H522 lung and in the experiment on 786-0 renal was above 100 µM throughout. Moreover, the TGI in the experiment on SNB-19 CNS is above 100 µM.
Consider `Cc1cccc(/C=N/N=C(\N)NO)n1`, for which the TGI in the experiment on SK-MEL-28 melanoma, in the experiment with IGROV1 ovarian, in the experiment on A498 renal, in the experiment on HCT-116 colon, with NCI-H522 lung and in the experiment on 786-0 renal was above 100 µM each time.
On to `CC(C)(C)CC(C)(C)c1cc2c(O)c(c1)Cc1cc(C(C)(C)CC(C)(C)C)cc(c1O)Cc1cc(C(C)(C)CC(C)(C)C)cc(c1O)Cc1cc(C(C)(C)CC(C)(C)C)cc(c1O)Cc1cc(C(C)(C)CC(C)(C)C)cc(c1O)Cc1cc(C(C)(C)CC(C)(C)C)cc(c1O)Cc1cc(C(C)(C)CC(C)(C)C)cc(c1O)Cc1cc(C(C)(C)CC(C)(C)C)cc(c1O)C2`, for which the TGI with SK-MEL-28 melanoma, with IGROV1 ovarian, in the experiment with RPMI-8226 leukemia, in the experiment on HCT-116 colon, in the experiment with NCI-H522 lung and in the experiment with 786-0 renal was above 100 µM each time. The molecule also showed a TGI with SNB-19 CNS above 100 µM.
As for `Cc1c(-c2cc(-c3ccccc3)n[nH]c2=O)c2ccccc2n1C`, the TGI with SK-MEL-28 melanoma, in the experiment with IGROV1 ovarian, in the experiment with RPMI-8226 leukemia, in the experiment on A498 renal, in the experiment on HCT-116 colon and in the experiment with NCI-H522 lung was above 100 µM in each case. Further, the TGI in the experiment on 786-0 renal and in the experiment on SNB-19 CNS was above 100 µM in each case.
Take `CNC(=O)NCCCCC(NC(=O)OCc1ccccc1)C(=O)OCc1ccccc1` (stereo not given): the TGI was 60.6 µM with SK-MEL-28 melanoma; 76.4 µM with IGROV1 ovarian; 51.4 µM in the experiment with RPMI-8226 leukemia; above 100 µM with A498 renal; above 100 µM in the experiment with HCT-116 colon; 28.3 µM with NCI-H522 lung. Further, the TGI was 32.2 µM with 786-0 renal and above 100 µM in the experiment with SNB-19 CNS.
For `O=C(/C=C/c1ccco1)N1CCN(Cc2ccccc2)CC1`, the TGI in the experiment with SK-MEL-28 melanoma, in the experiment on IGROV1 ovarian, with RPMI-8226 leukemia, with A498 renal, in the experiment on HCT-116 colon and in the experiment on NCI-H522 lung was above 100 µM throughout. The TGI in the experiment on 786-0 renal and in the experiment with SNB-19 CNS was above 100 µM in each case.
Turning to `C=CC(=O)OCCCS(=O)(=O)[O-].C=CC(=O)OCCCS(=O)(=O)[O-].NC1CCCCC1N.[Pt+4]`, the GI50 in the experiment on SK-MEL-28 melanoma, with IGROV1 ovarian, with RPMI-8226 leukemia, in the experiment with A498 renal, in the experiment on HCT-116 colon and in the experiment on NCI-H522 lung was above 25 µM each time. For the same molecule, the GI50 in the experiment with 786-0 renal and in the experiment on SNB-19 CNS was above 25 µM each time. Moreover, the TGI with SK-MEL-28 melanoma, in the experiment on IGROV1 ovarian, with RPMI-8226 leukemia, with A498 renal, with HCT-116 colon and in the experiment on NCI-H522 lung was above 25 µM throughout. Also, the TGI with 786-0 renal and in the experiment on SNB-19 CNS was above 25 µM each time.
